Experimental data taken from ChEMBL document CHEMBL4411257, “Inhibitors of Melanogenesis: An Updated Review” (J Med Chem, 2018).

What was measured:
Tyrosinase [1] = target: T1, Tyrosinase (Homo sapiens, UniProt P14679)
T1 sequence (P14679 whole entry): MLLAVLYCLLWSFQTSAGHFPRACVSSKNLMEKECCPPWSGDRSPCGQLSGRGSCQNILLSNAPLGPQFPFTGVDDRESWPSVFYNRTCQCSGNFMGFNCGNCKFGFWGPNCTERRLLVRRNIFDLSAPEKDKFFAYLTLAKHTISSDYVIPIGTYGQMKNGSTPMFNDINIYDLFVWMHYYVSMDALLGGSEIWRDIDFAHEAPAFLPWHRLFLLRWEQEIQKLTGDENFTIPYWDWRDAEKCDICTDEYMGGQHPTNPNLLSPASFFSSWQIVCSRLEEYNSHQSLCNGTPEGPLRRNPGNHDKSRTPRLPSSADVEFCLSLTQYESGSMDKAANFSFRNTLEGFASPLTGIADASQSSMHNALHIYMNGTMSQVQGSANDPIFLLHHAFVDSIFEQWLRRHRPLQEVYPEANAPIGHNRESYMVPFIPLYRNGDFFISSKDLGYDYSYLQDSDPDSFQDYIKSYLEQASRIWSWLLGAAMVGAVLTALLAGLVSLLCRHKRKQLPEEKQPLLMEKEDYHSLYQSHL

Tyrosinase [2] = target: T2, Tyrosinase (Agaricus bisporus, UniProt O42713); assay: Inhibition of Agaricus bisporus tyrosinase using L-tyrosine as substrate after 30 mins by spectrophotometric analysis
T2 sequence (O42713 whole entry): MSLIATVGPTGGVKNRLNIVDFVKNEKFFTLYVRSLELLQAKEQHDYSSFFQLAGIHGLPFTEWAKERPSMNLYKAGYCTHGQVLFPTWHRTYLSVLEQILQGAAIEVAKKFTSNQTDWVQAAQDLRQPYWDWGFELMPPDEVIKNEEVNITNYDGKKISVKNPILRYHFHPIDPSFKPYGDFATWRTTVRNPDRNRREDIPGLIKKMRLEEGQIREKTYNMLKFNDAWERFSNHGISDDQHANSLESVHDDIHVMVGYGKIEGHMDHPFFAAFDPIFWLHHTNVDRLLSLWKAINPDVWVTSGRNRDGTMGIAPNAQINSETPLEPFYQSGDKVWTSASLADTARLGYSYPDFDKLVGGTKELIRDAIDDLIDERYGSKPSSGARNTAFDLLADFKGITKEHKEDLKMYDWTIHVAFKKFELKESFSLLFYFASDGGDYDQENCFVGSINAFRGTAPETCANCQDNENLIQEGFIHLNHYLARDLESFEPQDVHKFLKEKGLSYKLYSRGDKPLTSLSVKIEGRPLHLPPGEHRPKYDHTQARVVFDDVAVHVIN

Tyrosinase [3] = target: T1, Tyrosinase; assay: Inhibition of tyrosinase (unknown origin) assessed as reduction in diphenolase activity
Tyrosinase [4] = target: T1, Tyrosinase; assay: Inhibition of tyrosinase (unknown origin) assessed as reduction in monophenolase activity
[5] = target: T3, Tyrosinase (Homo sapiens) (UniProt P14679); assay: Potency index, ratio of kojic acid IC50 to compound IC50 for human tyrosinase
T3 sequence (whole entry): T1 sequence (P14679 whole entry)

Tyrosinase [6] = target: T1, Tyrosinase; remark: listed apart in the source
[7] = Cytotoxicity against mouse B16 cells assessed as cell viability at 1000 uM after 48 hrs by MTT assay relative to control; type: cell-based; conditions: read-out: Activity
Tyrosinase [8] = target: T2, Tyrosinase
Description: Inhibition of mushroom tyrosinase

Tyrosinase [9] = target: T4, Tyrosinase (Mus musculus, UniProt P11344); type: cell-based
T4 sequence (P11344 whole entry): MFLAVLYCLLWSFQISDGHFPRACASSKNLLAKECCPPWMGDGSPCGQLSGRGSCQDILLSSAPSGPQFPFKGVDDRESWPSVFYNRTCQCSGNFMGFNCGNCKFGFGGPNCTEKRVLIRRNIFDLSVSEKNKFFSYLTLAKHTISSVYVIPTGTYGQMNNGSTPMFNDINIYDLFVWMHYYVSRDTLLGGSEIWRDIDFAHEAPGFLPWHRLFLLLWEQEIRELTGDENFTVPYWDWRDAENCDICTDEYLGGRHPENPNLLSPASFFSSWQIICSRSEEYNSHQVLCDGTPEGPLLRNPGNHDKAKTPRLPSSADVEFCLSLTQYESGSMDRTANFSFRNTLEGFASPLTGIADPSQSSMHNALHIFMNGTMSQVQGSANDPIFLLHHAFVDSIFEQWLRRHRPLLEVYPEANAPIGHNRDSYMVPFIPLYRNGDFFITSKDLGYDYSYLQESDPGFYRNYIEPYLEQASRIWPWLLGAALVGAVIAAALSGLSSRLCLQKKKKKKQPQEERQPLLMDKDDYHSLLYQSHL
Description: Inhibition of tyrosinase in mouse B16F10 cells assessed as reduction in melanin synthesis after 2 hrs by spectrophotometric analysis

Tyrosinase [10] = target: T4, Tyrosinase
Description: Inhibition of tyrosinase in mouse B16 cells assessed as reduction in melanin synthesis after 1 hr

[11] = target: T5, Tyrosinase (Mus musculus) (UniProt P11344); assay: Inhibition of tyrosinase in mouse B16 cells assessed as reduction in alpha-MSH induced melanin synthesis at 30 uM relative to control; type: cell-based
T5 sequence (whole entry): T4 sequence (P11344 whole entry)

Tyrosinase [12] = target: T4, Tyrosinase; assay: Inhibition of tyrosinase in mouse B16 cells assessed as reduction in alpha-MSH induced melanin synthesis; type: cell-based
Tyrosinase (Danio rerio) = target: T6, Tyrosinase (Danio rerio) (UniProt A0A8M1PAD4); assay: Inhibition of tyrosinase in zebrafish assessed as reduction in pigmentation level at 10 uM
T6 sequence (whole entry): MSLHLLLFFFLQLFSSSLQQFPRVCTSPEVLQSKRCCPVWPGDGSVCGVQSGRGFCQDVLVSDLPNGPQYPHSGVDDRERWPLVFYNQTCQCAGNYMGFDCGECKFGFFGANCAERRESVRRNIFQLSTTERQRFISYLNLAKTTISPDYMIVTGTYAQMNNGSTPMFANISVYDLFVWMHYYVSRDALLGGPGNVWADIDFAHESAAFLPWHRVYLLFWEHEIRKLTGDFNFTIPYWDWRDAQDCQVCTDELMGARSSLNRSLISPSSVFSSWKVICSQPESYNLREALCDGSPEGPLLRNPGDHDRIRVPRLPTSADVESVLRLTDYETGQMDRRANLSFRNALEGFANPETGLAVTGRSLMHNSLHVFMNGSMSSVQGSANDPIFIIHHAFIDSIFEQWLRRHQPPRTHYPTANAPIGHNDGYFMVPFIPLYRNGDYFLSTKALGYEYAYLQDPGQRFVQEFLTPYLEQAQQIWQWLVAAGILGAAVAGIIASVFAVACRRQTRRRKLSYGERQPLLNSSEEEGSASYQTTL

[13] = target: T3, Tyrosinase (Homo sapiens); assay: Inhibition of human tyrosinase at 1 uM using L-tyrosine as substrate after 30 mins by ELISA relative to control
[14] = target: T3, Tyrosinase (Homo sapiens); assay: Inhibition of tyrosinase in human epidemal melanocytes assessed as reduction in melanin formation at 1 uM; type: cell-based
[15] = target: T7, Tyrosinase (Agaricus bisporus) (UniProt O42713); assay: Inhibition of Agaricus bisporus tyrosinase at 1000 uM relative to control
T7 sequence (whole entry): T2 sequence (O42713 whole entry)

[16] = target: T3, Tyrosinase (Homo sapiens); assay: Competitive inhibition of recombinant human tyrosinase expressed in baculovirus infected Sf9 cells using L-DOPA as substrate by double-reciprocal plot analysis
Tyrosinase [17] = target: T4, Tyrosinase; assay: Inhibition of tyrosinase in mouse B16 cells; type: cell-based
Tyrosinase [18] = target: T2, Tyrosinase; assay: Inhibition of Agaricus bisporus tyrosinase using L-tyrosine as substrate after 60 mins by spectrophotometric analysis
Tyrosinase [19] = target: T1, Tyrosinase; assay: biochemical
Description: Inhibition of recombinant human tyrosinase expressed in baculovirus infected Sf9 cells using L-DOPA as substrate by spectrophotometric analysis

Tyrosinase [20] = target: T1, Tyrosinase; assay: Inhibition of human tyrosinase after 120 mins

Oc1ccc(/C=C/c2cc(O)cc(O)c2)cc1 [RESVERATROL]
IC50 (Tyrosinase [1]): 250 µM

O=C1C[C@@H](c2ccc(O)cc2O)Oc2cc(O)cc(O)c21
IC50 (Tyrosinase [1]): 0.98 µM

Cc1ccc(S(=O)(=O)Oc2ccccc2/N=N/c2ccc(O)cc2)cc1
IC50 (Tyrosinase [2]): 201 µM

Oc1ccc(/N=N/c2ccccc2O)cc1
IC50 (Tyrosinase [2]): 44.1 µM

CCCCCCn1cc(O)c(=O)cc1COC(=O)[C@@H](N)Cc1ccccc1
IC50 (Tyrosinase [3]): 42.8 µM
IC50 (Tyrosinase [4]): 19.2 µM

CCCCc1ccc(O)cc1O [RUCINOL]
Ratio IC50 [5]: 20
IC50 (Tyrosinase [6]): 21 µM

CC(C)=CCC[C@](C)(O[C@@H]1O[C@H](CO[C@@H]2O[C@H](CO)[C@@H](O)[C@H](O)[C@H]2O)[C@@H](O)[C@H](O)[C@H]1O)[C@H]1CC[C@]2(C)[C@@H]1[C@H](O)C[C@@H]1[C@@]3(C)CC[C@H](O[C@@H]4O[C@H](CO)[C@@H](O)[C@H](O)[C@H]4O[C@@H]4O[C@H](CO)[C@@H](O)[C@H](O)[C@H]4O)C(C)(C)[C@@H]3CC[C@]12C [GINSENOSIDE RB1]
viability at 48 h, 1000 µM [7]: 4.67%

O=C1/C(=C/c2ccc(O)cc2)Oc2cc(O)cc(O)c21
IC50 (Tyrosinase [8]): 38.7 µM

N[C@@H](Cc1ccccc1)C(=O)N[C@@H](Cc1ccccc1)C(=O)OCc1cc(=O)c(O)c[nH]1
IC50 (Tyrosinase [3]): 26.2 µM
IC50 (Tyrosinase [4]): 8.97 µM

O=C1/C(=C/c2ccc(O)cc2)Oc2cccc(O)c21
IC50 (Tyrosinase [8]): 31.7 µM

CC(C)=CCc1c(O)ccc(C[C@@H]2[C@H](c3c(O)ccc(C(=O)/C=C/c4ccc(O)cc4O)c3O)C=C(C)C[C@H]2c2ccc(O)cc2O)c1O
IC50 (Tyrosinase [1]): 4.62 µM

Oc1ccc(/N=C/c2ccc(O)c(O)c2)cc1
IC50 (Tyrosinase [2]): 17.2 µM

C[S+]([O-])c1ccc(-c2nc(-c3ccncc3)c(-c3ccc(F)cc3)[nH]2)cc1 (stereo not given) [SB-203580]
IC50 (Tyrosinase [9]): 0.034 µM

O=C(/C=C/c1ccc(O)cc1O)c1ccc(O)cc1O
IC50 (Tyrosinase [10]): 5 µM
IC50 (Tyrosinase [1]): 0.07 to 0.21 µM

CC(C)=C/C=C1\O[C@@H]2CC(C)=CC(=O)[C@@H]2[C@]1(C)O [BISABOLANGELONE]
inhibition [11]: 99%
IC50 (Tyrosinase [12]): 9 µM

COc1ccc(/N=C/c2ccc(O)cc2O)cc1
IC50 (Tyrosinase [2]): 51.5 µM

CCCCCCCCCCCCC/C=C1\C(=O)O[C@@](C)(OC)[C@@H]1O
inhibition (Tyrosinase (Danio rerio)): 25%
inhibition [13]: 50%
inhibition [14]: 40%

COc1ccc(NC(=O)/C=C/c2ccc(O)c(O)c2)cc1
inhibition [15]: 36.8%

Oc1cc(O)cc(-c2cc3ccc(O)cc3o2)c1 [MORACIN M]
IC50 (Tyrosinase [1]): 8 µM

O=C(N[C@@H](Cc1ccccc1)C(=O)OCc1cc(=O)c(O)c[nH]1)OCc1ccccc1
IC50 (Tyrosinase [3]): 2.79 µM
IC50 (Tyrosinase [4]): 1.95 µM

O=C1/C(=C/c2ccc(O)cc2)Oc2cc(O)ccc21
IC50 (Tyrosinase [8]): 38.4 µM

Cc1ccc(S(=O)(=O)Oc2ccccc2/N=N/c2ccc(O)cc2O)cc1
IC50 (Tyrosinase [2]): 17.9 µM

O=C1/C(=C/c2ccc(=O)n(O)c2)Oc2cc(O)ccc21
IC50 (Tyrosinase [8]): 1.5 µM
Kic [16]: 0.35 µM

CC(C)=CCc1c(O)ccc(C(=O)/C=C/c2ccc(O)cc2O)c1O [MORACHALCONE A]
IC50 (Tyrosinase [10]): 3.8 µM
IC50 (Tyrosinase [1]): 0.08 to 0.82 µM

Oc1cccc(/C=C/c2ccc(O)cc2O)c1
IC50 (Tyrosinase [17]): 0.8 µM

COc1ccc(/C=N/c2ccccc2)cc1
IC50 (Tyrosinase [18]): 212 µM

CN(C)c1ccc(/C=C/C(=N\O)c2ccccc2O)cc1
IC50 (Tyrosinase [1]): 7.89 µM

COc1ccc(/N=C/c2ccc(O)c(O)c2)cc1
IC50 (Tyrosinase [2]): 61.7 µM

Oc1ccc(/C=N/c2ccccc2)cc1
IC50 (Tyrosinase [18]): 145 µM

Oc1ccc(O)cc1 [HYDROQUINONE]
IC50 (Tyrosinase [6]): 4400 µM

O=C1/C(=C/c2ccc(=O)n(O)c2)Oc2cc(O)cc(O)c21
IC50 (Tyrosinase [19]): 30 µM

Oc1cc(O)cc(CCc2ccc(O)cc2O)c1
IC50 (Tyrosinase [17]): 0.3 µM

COc1cc([N+](=O)[O-])ccc1/C=C/C(=N\O)c1ccccc1O
IC50 (Tyrosinase [1]): 4.77 µM

C=C1OC(=O)/C(=C\CCCCCCCCCCCCC)[C@H]1O
inhibition (Tyrosinase (Danio rerio)): 30%
inhibition [13]: 50%
inhibition [14]: 40%

C=C(C)C(=O)Cc1c(-c2ccc(O)cc2O)oc2c3c(cc(O)c2c1=O)OC(C)(C)C=C3
IC50 (Tyrosinase [1]): 290 µM

Oc1ccccc1/C=N/c1ccccc1 [2-((PHENYLIMINO)METHYL)PHENOL]
IC50 (Tyrosinase [18]): 250 µM

O=C(O)/C=C/c1ccc(O)cc1 [COUMARIC ACID]
IC50 (Tyrosinase [20]): 3 µM

OC[C@H]1O[C@@H](Oc2cc(O)cc(/C=C/c3ccc(O[C@@H]4O[C@H](CO)[C@@H](O)[C@H](O)[C@H]4O)cc3O)c2)[C@H](O)[C@@H](O)[C@@H]1O [MULBERROSIDE A]
IC50 (Tyrosinase [17]): > 100 µM

CCCCCCCCn1cc(O)c(=O)cc1COC(=O)[C@@H](N)Cc1ccccc1
IC50 (Tyrosinase [3]): 12.6 µM
IC50 (Tyrosinase [4]): 12.6 µM

Oc1ccc(-c2nc(-c3ccncc3)c(-c3ccc(F)cc3)[nH]2)cc1 [SB-202190]
IC50 (Tyrosinase [9]): 0.03 µM

C/C(=C\Cc1c(O)ccc(C(=O)/C=C/c2ccc(O)cc2O)c1O)CO
IC50 (Tyrosinase [10]): 4 µM
IC50 (Tyrosinase [1]): 0.17 µM
